Reference: patent publication US9409952B2, “Peptide-compound cyclization method” (Chugai Seiyaku Kabushiki Kaisha, priority 2011, dated 2016)
Positions of bridges follow the written chain, without caps; N, C: chain ends. Non-standard residues stand in square brackets, D forms with d. Residues, ends and D or L forms follow the SMILES beside them. ξ: configuration not given here. *: point of attachment. Cha = N[C@@H](CC1CCCCC1)C(=O)O; Thr(3ξ) = CC(O)[C@H](N)C(=O)O; NMeA = CN[C@@H](C)C(=O)O; Piperidide = C1CCN(*)CC1

Tests used:
[1] = Identification of the metabolic site in mouse liver microsome (LC/MS); format: in vitro ADME; conditions: 10 uM, mouse liver microsome 0.5 mg protein/mL, 1 hour, with NADPH
Procedure: Compound P-113 cyclized peptide was metabolically reacted at a concentration of 10 uM with a microsome solution prepared at 0.5 mg protein/mL from mouse liver (male, manufactured by XENOTECH, USA) using 100 mM phosphate buffer (pH 7.4) for 1 hour in the presence of NADPH (FIG. 35). After the reaction, deproteinization treatment with acetonitrile was provided, and the resulting metabolites were analyzed with a high resolution LC/MS instrument (Q-TOF Ultima API, manufactured by Waters Corporation, USA). Mass chromatograms of the metabolites are shown below. […] MS/MS spectra of the peaks are shown below, respectively. The metabolites of Peak 1 and Peak 2 were assumed to be hydroxylated in the partial structures containing highly lipophilic side chain cyclohexyl groups. […] The metabolite of Peak 4 was assumed to have a thiol-containing site oxidized. Taking the ease of oxidation of this site into consideration, it was believed that the sulfur atom is likely to be the metabolic site.

[2] = side chain carboxyl group, phenolic hydroxy group or tetrazole; cited from earlier work

SMILES: CC(C)C[C@@H]1NC(=O)CSC[C@@H](C(=O)N[C@@H](CC2CCCCC2)C(=O)N2CCCCC2)NC(=O)[C@H](C)NC(=O)[C@H](C(C)O)NC(=O)[C@H]([C@@H](C)O)NC(=O)[C@H](CC2CCCCC2)NC(=O)[C@H](C)N(C)C1=O (stereo partly drawn) [Compound P-113, Ac*-Leu-MeAla-Cha-Thr-Thr-Ala-Cys*-Cha-piperidine] ({CH2CO}-L[NMeA][Cha]T[Thr(3ξ)]AC[Cha]-Piperidide; thioether N-7)
- metabolites detected [1]: Four peaks corresponding to hydroxides

SMILES: c1nnn[nH]1 [Tetrazole]
- pKa as an acid [2]: 5.6
